Test results from patent US7888330B2, “Phosphoramidate derivatives of FAU” (Wayne State University, priority 2005, dated 2011).
Where “and” joins values, the source holds several entries; their conditions need not be identical. Equal entries are not always repeated. Entries after “also recorded” stand apart in the source; their conditions may differ.

How the values were obtained:
Renca cells [1] = assay: Tracer uptake studies in Renca cells; type: cell-based, mouse; conditions: 2 hours, 1 μCi/mL [H-3] tracer
Procedure: (§1) Renca, a mouse renal carcinoma cell line used for these studies, was a gift from Dr. G. Gali Hillman, Wayne State University. Cells were cultured in RPMI-1640 medium containing L-glutamine (Gibco) supplemented with 10% (v/v) fetal bovine serum (FBS), 100 U/mL penicillin, and 0.1 mg/mL streptomycin. Cells were cultured at 37° C. in a humidified incubator with a gas phase of 95% air and 5% CO2.
Tracer uptake studies were performed using [H-3]FAU (318.2 GBq/mmol, >99% radiochemical purity), and [H-3]FAU-PA (9.25 GBq/mmol, >99% radiochemical purity). Radiochemicals were obtained from Moravek Biochemicals (Brea, Calif.).
Renca cells were seeded at 2×10^5 cells/mL in 6 well plates. After 48 hours, when cells were 50-60% confluent, culture medium was replaced with 1 mL medium containing either 1 μCi/mL of [H-3]FAU or [H-3]FAU-PA. Cells were incubated in a humidified incubator for two hours at 37° C. in an atmosphere of 5% CO2 and 95% air. At the end of the incubation period, radioactive medium was removed, and cells were rinsed three times with ice cold phosphate buffered saline (PBS). Then, cells were trypsinized, centrifuged at 2000 g for 5 minutes and rewashed three times with ice cold PBS. […] All the supernatants and pellet samples were mixed with 5 mL of Ultima Gold scintillation cocktail and counted for 5 minutes in a liquid scintillation counter. […]

Renca cells [2] = assay: DNA incorporation studies (PCA acid extraction) in Renca cells; type: cell-based, mouse; conditions: 2 hours
Procedure: as §1
Two days after seeding 1×10^6 cells in 100×20 mm culture dishes, culture medium was replaced with 1 mL medium containing either 1 μCi/mL of [H-3] FAU or [H-3] FAU-PA. Cells were incubated in a humidified incubator for two hours at 37° C. in an atmosphere of 5% CO2 and 95% air. At the end of the incubation period, radioactive medium was removed and cells were washed three times with ice cold PBS. Then, cells were trypsinized, centrifuged and rewashed three times with ice cold PBS. Cells were lysed with 1 mL of 1M ice-cold perchloric acid solution. The cell lysates were vortexed and centrifuged at 14000 g for 15 minutes. The supernatants were removed, and the pellets were rinsed twice with 1 mL PCA. The acid insoluble fractions were resuspended in 200 μl of Soluene-350. All the acid soluble fractions or supernatants and the acid insoluble fractions were mixed with 5 mL of Ultima Gold scintillation cocktail and counted for 5 minutes on a liquid scintillation counter after an overnight chilling. […]

pig liver esterase = assay: Pig liver esterase hydrolysis studies; type: in vitro ADME; conditions: 1 mg/mL in 0.02 M Na2HPO4, 200 units esterase per mL, 37° C., followed by TLC
Procedure: Thymidine and phosphoramidate analogs were dissolved in 0.02 M Na2HPO4 at a concentration of 1 mg/mL and 200 units of pig liver esterase per mL solutions (Sigma, St. Louis, Mo.) were added. The mixtures were stirred and maintained at 37° C. through out the course of the experiment. The rate of hydrolysis was followed by thin layer chromatography (TLC) from reaction mixture samples collected at selected intervals. For TLC monitoring, CH2Cl2:MeOH (4:1) and i-PrOH:NH4OH:H2O (7:1:2) mobile phases were used. At the completion of hydrolysis, within 30 minutes, samples were run on a HPLC system.

MOLT-4 cells = assay: Growth inhibition, MOLT-4 cells; type: cell-based, human
Procedure: (§2) The cell lines CEM (T lymphoblastoid cells derived from a human peripheral blood), MOLT-4 (derived from a human acute lymphoblasticleukemia), RAJI (derived from a human Burkitt lymphoma), U-937 (derived from a human histocytic lymphoma), and K-562 (derived from a human chronic myelogenous leukemia) were used to measure the cytotoxicity, as assessed by growth inhibition potential. The cell lines were purchased from the American Type Culture Collection (Vienna, Va.). The cells were grown and maintained as a suspension culture in a RPMI 1640 preparation containing L-glutamine (Biofluids, Rockville, Md.) and 10% (v/v) heat-inactivated fetal calf serum (Invitrogen, Chicago, Ill.); a penicillin-streptomycin solution (Sigma Chemical Co., St. Louis, Mo.) was added to achieve a final concentration of 100 units/mL, and 100 μg/mL respectively. Cells were maintained at 37° C. in a humidified 5% CO2 atmosphere and were passed every 72-96 h to maintain cell densities of approximately 30,000 to 40,000 cells/mL. Under these conditions, the doubling times for CEM cells, MOLT-4 cells, RAJI cells, U-937 cells, and K-562 cells were 21-22 hours.
(§3) FAU and FAUPA were dissolved in deionized water and sterilized by passing through a Millex-GV, 0.22 μm filter, Millipore, Bedford, Mass.
(§4) All cell lines were resuspended in fresh media at 3000 to 3500 cells/mL. […]

CEM cells = assay: Growth inhibition, CEM cells; type: cell-based, human; conditions: 72 hours, cell counting
Procedure: as §2, §3, §4

U-937 cells = assay: Growth inhibition, U-937 cells; type: cell-based, human; conditions: 72 hours
Procedure: as §2, §3, §4

RAJI cells = assay: Growth inhibition, RAJI cells; type: cell-based, human; conditions: 72 hours; for growth inhibition (in words): 3-1000 μM
Procedure: as §2, §3
(§5) All cell lines were resuspended in fresh media at 3000 to 3500 cells/mL. To each cell suspension final volume 0.2 mL, was added to achieve 0 to 1000 μM concentration of either FAU or FAU-PA. Control experiments had appropriate amounts of sterile distilled water instead of the drug.

K-562 cells = assay: Growth inhibition, K-562 cells; type: cell-based, human; conditions: 72 hours; for growth inhibition (in words): 3-1000 μM
Procedure: as §2, §3, §5

[3] = molecular target: T1, mammalian cytosolic thymidine kinase (TK1) (Homo sapiens, UniProt P04183); conditions: relative to thymidine or FMAU (Sun et al., 2003); cited from earlier work
T1 sequence (P04183 1-234): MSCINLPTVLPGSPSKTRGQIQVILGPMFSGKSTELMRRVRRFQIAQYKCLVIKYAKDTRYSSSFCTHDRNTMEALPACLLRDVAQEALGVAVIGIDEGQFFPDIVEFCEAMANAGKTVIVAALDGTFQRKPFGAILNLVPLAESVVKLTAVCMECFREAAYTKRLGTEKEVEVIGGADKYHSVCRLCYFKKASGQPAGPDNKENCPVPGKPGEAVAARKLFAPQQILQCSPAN

COC(=O)C(C)NP(=O)(OCC1OC(n2ccc(=O)[nH]c2=O)C(F)C1O)Oc1ccccc1 [FAU-PA, 1-(2′-deoxy-2′-fluoro-β-D-arabinofuranosyl)-uracil-5′-(phenylmethoxyalaninyl phosphate]
intracellular accumulation of activity, FAU-PA relative to FAU (Renca cells [1]): > 17 fold and 17 fold | intracellular accumulation of activity, FAU-PA relative to FAU (Renca cells [1]; listed as [H-3]FAU-PA): 17 fold | share of total accumulated activity found in the acid insoluble fraction (Renca cells [2]): 72% | time for hydrolysis by pig liver esterase (pig liver esterase): ≤ 15 min | IC50 (MOLT-4 cells; Homo sapiens, MOLT-4, 72 hours, cell counting): < 60 µM | IC50 (CEM cells; Homo sapiens, CCRF-CEM): < 60 µM | IC50 (U-937 cells; Homo sapiens, cell counting): < 60 µM | growth inhibition (in words) (RAJI cells): little growth inhibition | IC50 (RAJI cells; Homo sapiens, cell counting): > 100 µM | IC50 (K-562 cells; Homo sapiens, K562, K-562 cells (printed K-567), cell counting): > 100 µM | growth inhibition (in words) (K-562 cells; K-562 cells): little growth inhibition

O=c1ccn([C@@H]2O[C@H](CO)[C@@H](O)[C@@H]2F)c(=O)[nH]1 [FAU, 1-(2′-deoxy-2′-fluoro-β-D-arabinofuranosyl)-uracil, reference compound]
share of total accumulated activity found in the acid insoluble fraction (Renca cells [2]): 80% | growth inhibition at 1 mM (in words) (MOLT-4 cells; 1 mM, 72 hours, compared with CEM): somewhat less inhibited | IC50 (CEM cells): < 100 µM | growth inhibition at 1 mM (in words) (U-937 cells; 1 mM, compared with CEM): somewhat less inhibited | growth inhibition at 1 mM (in words) (RAJI cells; 1 mM, compared with CEM): somewhat less inhibited | growth inhibition (in words) (RAJI cells): little growth inhibition | growth inhibition at 1 mM (K-562 cells; K-562 cells, 1 mM): 40% | growth inhibition (in words) (K-562 cells; K-562 cells): little growth inhibition | substrate quality for thymidine kinase (in words) [3]: poor substrate; also recorded: very poor substrate

COC(=O)C(C)NP(=O)(OCC1OC(n2cc(C)c(=O)[nH]c2=O)C[C@H]1O)Oc1ccccc1 (stereo partly drawn) [thymidine-PA, Methyl thymidine-5′-phenylphosphoryl-P→N-alaninate, reference compound]
time for hydrolysis by pig liver esterase (pig liver esterase): 15 to 30 min
